For one test, the target named is TGFβR2 (Homo sapiens, UniProt P37173). In words: LanthaScreen Eu kinase binding assay, BMP type II receptor TGFbR2. As to conditions: 10-point titration from 10 μM, 3-fold serial dilution, Life Technologies. From the text: For the detailed description of LanthaScreen™ Eu kinase binding assay condition, please see: https://www.thermofisher.com/us/en/home/industrial/pharma-biopharma/drug-discovery-development/target-and-lead-identification-and-validation/kinasebiology/kinase-activity-assays/lanthascreentm-eu-kinas e-binding-assay/lanthascreen-eu-kinase-binding-assay-validation-table.html.
Sequence of TGFβR2 (P37173 23-567): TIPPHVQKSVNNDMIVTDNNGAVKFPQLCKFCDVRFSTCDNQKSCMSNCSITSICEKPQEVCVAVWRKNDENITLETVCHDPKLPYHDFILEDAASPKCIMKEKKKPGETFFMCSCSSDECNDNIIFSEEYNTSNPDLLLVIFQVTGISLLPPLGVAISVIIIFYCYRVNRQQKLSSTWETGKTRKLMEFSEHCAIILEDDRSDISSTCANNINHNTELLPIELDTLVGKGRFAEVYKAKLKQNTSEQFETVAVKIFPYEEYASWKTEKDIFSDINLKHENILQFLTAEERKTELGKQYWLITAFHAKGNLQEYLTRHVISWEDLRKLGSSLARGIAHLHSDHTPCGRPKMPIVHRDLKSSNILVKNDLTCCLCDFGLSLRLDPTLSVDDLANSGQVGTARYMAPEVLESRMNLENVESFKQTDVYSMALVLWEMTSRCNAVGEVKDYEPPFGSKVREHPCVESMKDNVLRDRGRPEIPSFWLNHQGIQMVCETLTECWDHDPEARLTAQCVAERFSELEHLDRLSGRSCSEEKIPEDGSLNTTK
For orientation: Time-resolved FRET reads energy transfer from a long-lived donor to a nearby acceptor.

In another test the target is T1, BMPR2 (Homo sapiens, UniProt Q13873).
T1 sequence (Q13873 27-1038): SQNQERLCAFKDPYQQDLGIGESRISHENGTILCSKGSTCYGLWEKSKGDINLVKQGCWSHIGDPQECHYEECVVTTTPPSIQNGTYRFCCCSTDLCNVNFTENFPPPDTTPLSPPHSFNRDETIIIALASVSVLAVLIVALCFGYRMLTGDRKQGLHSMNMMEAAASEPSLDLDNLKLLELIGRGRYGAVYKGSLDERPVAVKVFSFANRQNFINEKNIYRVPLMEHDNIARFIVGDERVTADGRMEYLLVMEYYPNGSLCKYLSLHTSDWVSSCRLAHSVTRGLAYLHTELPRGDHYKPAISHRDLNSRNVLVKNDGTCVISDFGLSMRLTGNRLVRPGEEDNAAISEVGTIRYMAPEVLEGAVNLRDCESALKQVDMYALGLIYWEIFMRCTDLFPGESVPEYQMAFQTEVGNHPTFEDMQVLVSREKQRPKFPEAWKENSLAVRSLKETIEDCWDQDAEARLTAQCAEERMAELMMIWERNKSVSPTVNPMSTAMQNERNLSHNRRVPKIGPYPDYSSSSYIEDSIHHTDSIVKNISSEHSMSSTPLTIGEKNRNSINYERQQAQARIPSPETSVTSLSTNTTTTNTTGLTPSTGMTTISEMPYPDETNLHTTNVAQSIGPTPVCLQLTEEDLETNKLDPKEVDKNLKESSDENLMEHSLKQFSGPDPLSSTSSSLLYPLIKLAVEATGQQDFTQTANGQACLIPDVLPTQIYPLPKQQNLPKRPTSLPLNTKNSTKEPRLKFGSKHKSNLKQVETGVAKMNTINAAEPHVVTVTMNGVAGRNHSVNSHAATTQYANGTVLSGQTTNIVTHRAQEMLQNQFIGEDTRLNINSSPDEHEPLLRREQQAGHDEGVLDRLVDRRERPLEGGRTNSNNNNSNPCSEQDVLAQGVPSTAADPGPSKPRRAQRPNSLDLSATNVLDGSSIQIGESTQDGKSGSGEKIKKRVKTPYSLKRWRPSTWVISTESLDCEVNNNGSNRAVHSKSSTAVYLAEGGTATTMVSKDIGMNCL
Kind of test: LanthaScreen Eu kinase binding assay, BMP type II receptor BMPR2. As to conditions: 10-point titration from 10 μM, 3-fold serial dilution, Life Technologies. The method, then:
Kinase Profiling BMP Type II Receptor Experimental Procedure (Life Technologies, 5225 Vernona Road, Madison, Wis. 53744)
The measurement of each compound's half maximal inhibitory concentration (IC50) for BMP type II receptors (ACVR2A, ACVR2B, BMPR2 and TGFbR2) was carried out at Life Technologies by using its 10-point titration (starting concentration: 10 μM with 3-fold serial dilution) LanthaScreen™ biochemical kinase assay protocol. For the detailed description of LanthaScreen™ Eu kinase binding assay condition, please see: https://www.thermofisher.com/us/en/home/industrial/pharma-biopharma/drug-discovery-development/target-and-lead-identification-and-validation/kinasebiology/kinase-activity-assays/lanthascreentm-eu-kinas e-binding-assay/lanthascreen-eu-kinase-binding-assay-validation-table.html.

Another test concerns TGFb. In words: Cell assay HTRF TGFb (Table 15). The test is classed as cell-based. As to conditions: read-out: HRTF TGFb (IC50).

By IC50 is commonly meant the concentration that gives 50% inhibition. As to `Cc1cc(-c2cnn3cc(N4CCC(N5CCN(C)CC5)CC4)cnc23)c2ccccc2n1` [Compound 8], the results for the IC50 on TGFβR2, at BMPR2 and with TGFb were 191 nM, over 10000 nM and 2040 nM, respectively.

On to `c1ccc2c(-c3cnn4cc(-c5ccc(N6CCNCC6)cc5)cnc34)ccnc2c1` [TRND00262637-13], for which the IC50 on TGFβR2 was 8.06 nM; on BMPR2, over 10000 nM; in the test with TGFb, 9290 nM.

(Values after patent publication US20230000869A1, “NOVEL ALK2 INHIBITORS AND METHODS FOR INHIBITING BMP SIGNALING” (The Brigham and Women's Hospital, Inc., priority 2017, published 2023).)
